In assay [1] the target is human recombinant COX-1 (Homo sapiens, UniProt P23219). Kind of assay: COX-1. Format: biochemical. Particulars: read-out: COX-1% (percentage of inhibition of COX-1).
Assay [2] has as its target T1, human recombinant COX-2 (Homo sapiens, UniProt P35354).
T1 sequence (P35354 18-604): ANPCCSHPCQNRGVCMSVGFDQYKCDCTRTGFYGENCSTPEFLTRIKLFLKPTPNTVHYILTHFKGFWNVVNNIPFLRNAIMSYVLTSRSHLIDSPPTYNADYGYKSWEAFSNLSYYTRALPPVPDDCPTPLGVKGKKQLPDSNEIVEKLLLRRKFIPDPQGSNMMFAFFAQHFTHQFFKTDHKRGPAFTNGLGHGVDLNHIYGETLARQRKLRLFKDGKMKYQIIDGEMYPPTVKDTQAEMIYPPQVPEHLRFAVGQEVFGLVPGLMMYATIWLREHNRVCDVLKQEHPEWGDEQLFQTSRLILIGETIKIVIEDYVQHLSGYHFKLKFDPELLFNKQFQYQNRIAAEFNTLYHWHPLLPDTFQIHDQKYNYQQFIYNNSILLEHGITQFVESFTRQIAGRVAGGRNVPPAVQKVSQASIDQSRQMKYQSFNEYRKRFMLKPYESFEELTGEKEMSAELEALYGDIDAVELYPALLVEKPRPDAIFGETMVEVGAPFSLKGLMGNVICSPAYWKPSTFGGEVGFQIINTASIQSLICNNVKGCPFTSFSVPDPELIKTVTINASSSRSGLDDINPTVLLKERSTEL
Kind of assay: COX-2. Format: biochemical. Particulars: read-out: COX-2% (percentage of inhibition of COX-2).

Assay [3] relates to LPS-induced IL-6 in WI-38 fibroblast cells. Kind of assay: ELISA assay for IL-6 release in LPS-stimulated cells. Format: cell-based. Particulars: LPS-stimulated WI-38 fibroblast cells. A general note: ELISA stands for enzyme-linked immunosorbent assay.
For assay [4], the system named is LPS-induced TNF-α in WI-38 fibroblast cells. Kind of assay: ELISA assay for TNF-α release in LPS-stimulated cells. Format: cell-based. Conditions: LPS-stimulated WI-38 fibroblast cells.

The inhibition is the relative decrease from the control value, in per cent.

“Also recorded” adds a separate entry of the source.

human recombinant COX-1, sequence (P23219 24-599): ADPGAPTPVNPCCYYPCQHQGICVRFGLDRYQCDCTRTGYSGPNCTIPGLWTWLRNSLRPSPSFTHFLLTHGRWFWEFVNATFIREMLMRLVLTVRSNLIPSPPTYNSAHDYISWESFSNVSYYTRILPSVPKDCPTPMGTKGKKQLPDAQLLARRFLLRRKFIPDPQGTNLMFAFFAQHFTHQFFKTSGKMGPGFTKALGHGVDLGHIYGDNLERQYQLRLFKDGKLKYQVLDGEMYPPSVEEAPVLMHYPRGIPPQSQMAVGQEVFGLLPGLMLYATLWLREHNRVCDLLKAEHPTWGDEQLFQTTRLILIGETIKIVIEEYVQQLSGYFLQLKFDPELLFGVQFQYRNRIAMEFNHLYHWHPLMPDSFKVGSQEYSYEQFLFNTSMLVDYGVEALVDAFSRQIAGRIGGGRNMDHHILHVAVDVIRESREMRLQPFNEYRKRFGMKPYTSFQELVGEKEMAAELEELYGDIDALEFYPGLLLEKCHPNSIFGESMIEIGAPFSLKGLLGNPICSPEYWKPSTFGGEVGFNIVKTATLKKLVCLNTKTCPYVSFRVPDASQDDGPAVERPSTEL

In the case of `O=C(c1ccc(C(F)(F)F)cc1)C1C(c2cc3ccccc3o2)C2C3CCCCC3CN2[C@@]12C(=O)Nc1ccc(Br)cc12` (stereo partly drawn) [Compound 5k, (3S)-1'-(Benzofuran-2-yl)-5-bromo-2'-(4-(trifluoromethyl)benzoyl)-1',2',5',5a',6',7',8',9',9a',9b'-decahydro-spiro[indoline-3,3'-pyrrolo[2,1-a]isoindol]-2-one], the inhibition at 40 µg/mL was found to be 12.3% in assay [1] and 4.45% in assay [2]. Also, in assay [3], the “inhibition of IL-6 release (in words)” value was “markedly inhibited; also recorded: most effective; also recorded: high potency”. In addition, the “inhibition of TNF-α release (in words)” value in assay [4] is recorded as “markedly inhibited; also recorded: most effective; also recorded: high potency”.
